In brackets after ≈: the same amount, converted by molar mass. Where two headings read alike, the source gives them in different places.
Tests used:
[1] = tested on: Multi-resistant Staphylococcus aureus (MRSA) USA300 cells; assay: MIC in vitro broth micro-dilution assay, MRSA USA300; type: cell-based; settings: for MIC: Staphylococcus aureus
Procedure: (§1) Bacterial susceptibility was established through an in vitro cell-based broth micro-dilution assay. To produce accurate and reproducible MIC-values, a procedure was used which follows the guidelines set by the Clinical and Laboratory Standards Institute (CLSI, USA) and the European Committee on Antimicrobial Susceptibility Testing (EUCAST). The micro-dilutions were carried out in 96-well plates, according to FIG. 3, wherein column 1 is a growth control, Columns 2 to 11 are dilutions of 1×, 2×, 4×, 8×, 16×, 32×, 64×, 128×, 256×, 512× respectively, and column 12 is a sterile control. To further increase the reliability of each susceptibility test, inoculation involved the use of three independent overnight cultures (ON1-ON3) thus giving rise to […]. Furthermore, each ON was added to two individual dilution rows, giving rise to […]. The standard inoculum was set to ˜5-10^5 colony-forming units (CFU) mL^−1. This was verified by dilution onto agar plates after each overall run.
(§2) The applied procedure was:
(§3) 1.1 MH or BHI agar plates for dilutions were created, 1 plate per overnight (ON) culture and MH or BHI media. 1.2 Day 1: Preparation of ON cultures of the bacterial strain in question, by inoculation of a single colony in 5 mL of MH or BHI media. Then incubation at 37° C. with aeration for approximately 16-20 hours. Biological triplicates were created by inoculation from 3 different colonies per strain.
(§4) 1.3 Day 2: A 96-well plate with the antibiotic/compound in question was prepared as according to FIG. 3: 1.4 In a 15 mL falcon tube, an appropriate volume of a 1000 μg/mL antibiotic/compound DMSO stock was diluted with MH or BHI media such that a 2× concentration and total volume of 10 mL was achieved. 1.5 A multi-channel pipette was used in the following. 1.6 Column 1 was used for growth control, so no antibiotic/compound was added to that column. 1.7 200 μl of 2× concentration of the antibiotic/compound was added to column 2. Technical duplicates were always created, thus 2 columns per ON culture. 1.8 100 μl of MH or BHI media was added to columns 1, 3-11 and 200 μl of MH or BHI media to column 12. 1.9 100 μl was transferred from column 2 to column 3. The same pipetting tips were used to transfer 100 μL from column 3 to 4. This scheme was repeated until column 11 where 100 μl was discarded after re-suspending. Column 12 was used as a sterile control, so no antibiotic/compound was added to that column. Each transferring involved pipetting up and down 5 to 7 times. 1.10 The plates were fully dried for CFU in the 42° C. incubator, 4× dilutions in triplicates per one plate.
(§5) 1.11 The optical density of bacterial cells in the ON culture was measured at wavelength 600 nm (OD600). Then the ON culture was diluted to an OD600=0.1. 1.12 Then the OD600 was re-measured to make certain that it was between 0.08 and 0.13. 1.13 The prepared 0.1 culture of 1.12 was diluted 100× more by transferring of 100 μl thereof, to 10 ml of MH or BHI media (enough for a 96-well plate). 1.14 Then 200 μl of the 100× dilution in 1.13 was transferred to Eppendorf tubes and kept cold until use. 1.15 100 μl of culture with an OD600 on approximately 0.001 was dispensed to each well of columns 1 to 11. 1.16 The plate was closed. Covered with aluminium foil and small holes were created with a 100-200 μL tip.
(§6) 1.17 The 96-well plate was then incubated at 37° C. with agitation and left for 16-hours.
(§7) 1.18 Verification of standard inoculum: The 100× diluted culture of 1.13 was used to create 10^−1 to 10^−4 dilutions in PBS/0.9% saline (100 μl sample to 900 μl PBS, mix well and continue until 10^−4). 1.19 10 μl of the 10^−2, 10^−3 and 10^−4 dilutions in 1.18 were spotted onto very dry MH or BHI plates in triplicates. 1.20 Then incubated overnight at 37° C. 1.21 The plates were examined manually or by using the plate reader.

[2] = tested on: S. pneumonia cells; assay: MIC in vitro broth micro-dilution assay, S. pneumonia; type: cell-based, Streptococcus pneumonia; settings: lowest concentration to fully inhibit visible growth (OD600), clinical isolate; for MIC: Streptococcus pneumoniae, read-out: in vitro susceptibility (MIC) S. Pneumonia
Procedure: as §1, §2, §3, §4, §5, §6, §7

[3] = tested on: E. faecalis cells; assay: MIC in vitro broth micro-dilution assay, E. faecalis; type: cell-based, Enterococcus faecalis; settings: lowest concentration to fully inhibit visible growth (OD600), clinical isolate; for MIC: Enterococcus faecalis, read-out: in vitro susceptibility (MIC) E. Faecalis
Procedure: as §1, §2, §3, §4, §5, §6, §7

[4] = tested on: vancomycin-resistant enterococci (VRE) cells, VRE 1; assay: MIC in vitro broth micro-dilution assay, VRE 1; type: cell-based; settings: lowest concentration to fully inhibit visible growth (OD600), clinical isolate, ampicillin, ciprofloxacin and vancomycin resistant; for MIC: Enterococcus, VRE, read-out: in vitro susceptibility (MIC) VRE 1
Procedure: as §1, §2, §3, §4, §5, §6, §7

[5] = tested on: vancomycin-resistant enterococci (VRE) cells, VRE 5; assay: MIC in vitro broth micro-dilution assay, VRE 5; type: cell-based; settings: lowest concentration to fully inhibit visible growth (OD600), clinical isolate, ampicillin, ciprofloxacin, vancomycin and linezolid resistant; for MIC: Enterococcus, VRE, read-out: in vitro susceptibility (MIC) VRE 5
Procedure: as §1, §2, §3, §4, §5, §6, §7

[6] = lowest concentration to fully inhibit visible growth (OD600), ATCC strain, read-out: in vitro susceptibility (MIC) MRSA USA3000

Compound	MIC [1, 6] [µg/mL]	MIC [2] [µg/mL]	MIC [3] [µg/mL]	MIC [4] [µg/mL]	MIC [5] [µg/mL]	in vitro susceptibility (MIC) MRSA USA3000 ([1]; lowest concentration to fully inhibit visible growth (OD600), ATCC strain, listed as drawing 80) [µg/mL]	MIC ([1]; read-out: MIC value, MRSA USA300 cells) [µg/mL]	in vitro susceptibility (MIC) MRSA USA3000 ([1]; lowest concentration to fully inhibit visible growth (OD600), ATCC strain) [µg/mL]	in vitro susceptibility (MIC) S. Pneumonia [2] [µg/mL]	in vitro susceptibility (MIC) E. Faecalis [3] [µg/mL]	in vitro susceptibility (MIC) VRE 1 [4] [µg/mL]	in vitro susceptibility (MIC) VRE 5 [5] [µg/mL]
C=C[C@]1(C)C[C@@H](OC(=O)Cn2cc(-c3ccc(Cn4cnc5c(N)ncnc54)nc3)nn2)[C@]2(C)[C@H](C)CC[C@]3(CCC(=O)[C@H]32)[C@@H](C)[C@@H]1O [C7, 22-[4-(6-((6-Amino-9H-purin-9-yl)methyl)pyridin-3-yl)-1H-1,2,3-triazol-1-yl]-22-deoxypleuromutilin]		0.25 (≈ 0.382 µM)	0.25 (≈ 0.382 µM)	0.12 (≈ 0.184 µM)	0.12 (≈ 0.184 µM)	0.03						
C=C[C@]1(C)C[C@@H](OC(=O)Cn2cc(-c3ccc([C@@H](C)n4cnc5c(N6CCNCC6)ncnc54)cc3)nn2)[C@]2(C)[C@H](C)CC[C@]3(CCC(=O)[C@H]32)[C@@H](C)[C@@H]1O [C13, 22-[4-(4-((R)-1-(6-(piperazin-1-yl)-9H-purin-9-yl)ethyl)phenyl)-1H-1,2,3-triazol-1-yl]-22-deoxypleuromutilin]	0.5 (≈ 0.679 µM)	0.25 (≈ 0.34 µM)	0.25 (≈ 0.34 µM)	0.25 (≈ 0.34 µM)	0.12 to 0.25 (≈ 0.163 to 0.34 µM)							
Retapamulin [reference compound]								0.25	0.12	0.12	0.03	0.03
C=C[C@]1(C)C[C@@H](OC(=O)Cn2cc(-c3ccc([C@@H](C)n4cnc5c(N)ncnc54)cc3)nn2)[C@]2(C)[C@H](C)CC[C@]3(CCC(=O)[C@H]32)[C@@H](C)[C@@H]1O [C12, 22-[4-(4-((R)-1-(6-amino-9H-purin-9-yl)ethyl)phenyl)-1H-1,2,3-triazol-1-yl]-22-deoxypleuromutilin]	0.12 (≈ 0.18 µM)	0.25 (≈ 0.375 µM)	0.25 (≈ 0.375 µM)	0.25 (≈ 0.375 µM)	0.25 (≈ 0.375 µM)							
C=C[C@]1(C)C[C@@H](OC(=O)Cn2cc(-c3cc(C#N)ccc3O)nn2)[C@]2(C)[C@H](C)CC[C@]3(CCC(=O)[C@H]32)[C@@H](C)[C@@H]1O [C19, 22-[4-(5-cyano-2-hydroxyphenyl)-1H-1,2,3-triazol-1-yl]-22-deoxypleuromutilin]	0.25 (≈ 0.457 µM)	4 (≈ 7.32 µM)	2 (≈ 3.66 µM)	1 (≈ 1.83 µM)	1 (≈ 1.83 µM)							

Second part, led by results:

MIC [1, 6] [µg/mL]	MIC [2] [µg/mL]	MIC [3] [µg/mL]	MIC [4] [µg/mL]	MIC [5] [µg/mL]	in vitro susceptibility (MIC) MRSA USA3000 ([1]; lowest concentration to fully inhibit visible growth (OD600), ATCC strain, listed as drawing 80) [µg/mL]	MIC ([1]; read-out: MIC value, MRSA USA300 cells) [µg/mL]	Compound	in vitro susceptibility (MIC) MRSA USA3000 ([1]; lowest concentration to fully inhibit visible growth (OD600), ATCC strain) [µg/mL]	in vitro susceptibility (MIC) S. Pneumonia [2] [µg/mL]	in vitro susceptibility (MIC) E. Faecalis [3] [µg/mL]	in vitro susceptibility (MIC) VRE 1 [4] [µg/mL]	in vitro susceptibility (MIC) VRE 5 [5] [µg/mL]
0.06 (≈ 0.0879 µM)	0.25 (≈ 0.366 µM)	0.25 (≈ 0.366 µM)	0.12 (≈ 0.176 µM)	0.12 (≈ 0.176 µM)			C=C[C@]1(C)C[C@@H](OC(=O)Cn2cc(-c3ccc(Cn4cnc5c(N)ncnc54)c(OC)c3)nn2)[C@]2(C)[C@H](C)CC[C@]3(CCC(=O)[C@H]32)[C@@H](C)[C@@H]1O [C8, 22-[4-(4-((6-Amino-9H-purin-9-yl)methyl)-3-methoxyphenyl)-1H-1,2,3-triazol-1-yl]-22-deoxypleuromutilin]					
0.06 (≈ 0.0898 µM)	0.25 (≈ 0.374 µM)	0.25 (≈ 0.374 µM)	0.25 (≈ 0.374 µM)	0.25 (≈ 0.374 µM)			C=C[C@]1(C)C[C@@H](OC(=O)Cn2cc(-c3ccc(Cn4cnc5c(N)nc(N)nc54)cc3)nn2)[C@]2(C)[C@H](C)CC[C@]3(CCC(=O)[C@H]32)[C@@H](C)[C@@H]1O [C6, 22-[4-(4-((2,6-Diamino-9H-purin-9-yl)methyl)phenyl)-1H-1,2,3-triazol-1-yl]-22-deoxypleuromutilin]					
0.03 (≈ 0.046 µM)	0.05 (≈ 0.0766 µM)	0.25 (≈ 0.383 µM)	0.25 (≈ 0.383 µM)	0.25 (≈ 0.383 µM)		0.03 (≈ 0.046 µM)	C=C[C@]1(C)C[C@@H](OC(=O)Cn2cc(-c3ccc(Cn4cnc5c(N)ncnc54)cc3)nn2)[C@]2(C)[C@H](C)CC[C@]3(CCC(=O)[C@H]32)[C@@H](C)[C@@H]1O [C1]					
